pEC50: −log10 of the molar value.
Target: T1, Full-length glucokinase (beta cell isoform) (Homo sapiens, UniProt P35557)
T1 construct: Full-length glucokinase (beta cell isoform) was His-tagged at N-terminus; His tag (N); made in house
T1 sequence (P35557 1-465): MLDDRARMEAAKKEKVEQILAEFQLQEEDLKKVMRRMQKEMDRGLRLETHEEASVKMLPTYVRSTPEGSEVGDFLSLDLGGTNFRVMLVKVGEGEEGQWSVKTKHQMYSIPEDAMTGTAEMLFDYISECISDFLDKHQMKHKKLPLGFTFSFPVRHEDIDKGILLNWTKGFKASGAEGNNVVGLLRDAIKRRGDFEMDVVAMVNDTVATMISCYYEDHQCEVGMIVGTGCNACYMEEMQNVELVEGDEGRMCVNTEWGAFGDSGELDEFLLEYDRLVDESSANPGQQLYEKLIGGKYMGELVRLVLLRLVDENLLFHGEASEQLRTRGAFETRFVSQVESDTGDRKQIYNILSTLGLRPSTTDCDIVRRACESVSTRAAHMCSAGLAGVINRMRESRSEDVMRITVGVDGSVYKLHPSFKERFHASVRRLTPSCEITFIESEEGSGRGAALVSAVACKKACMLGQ
Test: Glucokinase biochemical assay (PK/LDH-coupled, NADH depletion at 340 nm): % activation, EC50, % max activation
Details: 5 mM glucose; for activation at 10 µM: 10 uM compound, % Activation=(Va/Vo−1)×100, read-out: % Activation at 10 uM; for pEC50: GK activation, read-out: EC50; for Emax: fitted maximum activation, read-out: % Max Activation
Procedure, shortened: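 N-terminally His-tagged full-length human beta-cell glucokinase, room temperature, 5 mM glucose, 1 mM ATP, PK/LDH-coupled with 0.7 mM NADH, 1% DMSO final. Initial velocity from the 200–900 s slope of A340 decline. % activation = (Va/Vo−1)×100, measured across compound concentrations.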

| activation at 10 µM | pEC50 | Emax | SMILES |
| --- | --- | --- | --- |
| 131% | 5.47 | 123% | Cn1ccc(NC(=O)c2cc(OCC(=O)c3ccc(CO)cc3)c3c(c2)OC(C)(C)C3)n1 [Example 97, 4-[2-(4-Hydroxymethyl-phenyl)-2-oxo-ethoxy]-2,2-dimethyl-2,3-dihydro-benzofuran-6-carboxylic acid (1-methyl-1H-pyrazol-3-yl)-amide] |
| 154% | 5.80 | 165% | Cn1ccc(NC(=O)c2cc(OCc3nc(-c4ccccn4)no3)c3c(c2)OC(C)(C)C3)n1 [Example 98, 2,2-Dimethyl-4-(3-pyridin-2-yl-[1,2,4]oxadiazol-5-ylmethoxy)-2,3-dihydro-benzofuran-6-carboxylic acid (1-methyl-1H-pyrazol-3-yl)-amide] |
| 112% | 5.37 | 136% | Cc1ncsc1CCOc1cc(C(=O)Nc2ccn(C)n2)cc2c1CC(C)(C)O2 [Example 99, 2,2-Dimethyl-4-[2-(4-methyl-thiazol-5-yl)-ethoxy]-2,3-dihydro-benzofuran-6-carboxylic acid (1-methyl-1H-pyrazol-3-yl)-amide] |
| 171% | 5.80 | 156% | CCCc1noc(COc2cc(C(=O)Nc3ccn(C)n3)cc3c2CC(C)(C)O3)n1 [Example 100, 2,2-Dimethyl-4-(3-propyl-[1,2,4]oxadiazol-5-ylmethoxy)-2,3-dihydro-benzofuran-6-carboxylic acid (1-methyl-1H-pyrazol-3-yl)-amide] |
| 92.6% | 5.06 | 137% | C[C@@H](CO)COc1cc(C(=O)Nc2ccn(C)n2)cc2c1CC(C)(C)O2 [Example 102, 4-((S)-3-Hydroxy-2-methyl-propoxy)-2,2-dimethyl-2,3-dihydro-benzofuran-6-carboxylic acid (1-methyl-1H-pyrazol-3-yl)-amide] |
| 78.9% | 5.33 | 94% | Cc1ccc(C(=O)COc2cc(C(=O)Nc3ccn(C)n3)cc3c2CC(C)(C)O3)cn1 [Example 103, 2,2-Dimethyl-4-[2-(6-methyl-pyridin-3-yl)-2-oxo-ethoxy]-2,3-dihydro-benzofuran-6-carboxylic acid (1-methyl-1H-pyrazol-3-yl)-amide] |
| 149% | 5.74 | 134% | CCc1nc(O)cc(COc2cc(C(=O)Nc3ccn(C)n3)cc3c2CC(C)(C)O3)n1 [Example 104, 4-(2-Ethyl-6-hydroxy-pyrimidin-4-ylmethoxy)-2,2-dimethyl-2,3-dihydro-benzofuran-6-carboxylic acid (1-methyl-1H-pyrazol-3-yl)-amide] |
| 70.1% | 5.03 | 102% | Cn1cc(C(=O)COc2cc(C(=O)Nc3ccn(C)n3)cc3c2CC(C)(C)O3)cn1 [Example 105, 2,2-Dimethyl-4-[2-(1-methyl-1H-pyrazol-4-yl)-2-oxo-ethoxy]-2,3-dihydro-benzofuran-6-carboxylic acid (1-methyl-1H-pyrazol-3-yl)-amide] |
| 143% | 5.62 | 141% | Cc1ncccc1COc1cc(C(=O)Nc2ccn(C)n2)cc2c1CC(C)(C)O2 [Example 106, 2,2-Dimethyl-4-(2-methyl-pyridin-3-ylmethoxy)-2,3-dihydro-benzofuran-6-carboxylic acid (1-methyl-1H-pyrazol-3-yl)-amide] |
| 173% | 7.01 | 163% | CN(C)C(=O)c1ccc(Oc2cc(C(=O)Nc3ccn(C)n3)cc3c2CC(C)(C)O3)c(Cl)c1 [Example 107, 4-(2-Chloro-4-dimethylcarbamoyl-phenoxy)-2,2-dimethyl-2,3-dihydro-benzofuran-6-carboxylic acid (1-methyl-1H-pyrazol-3-yl)-amide] |
| 82.2% | 7.12 | 107% | CN(C)C(=O)c1ccc(Oc2cc(C(=O)Nc3ccn(C)n3)cc3c2CC(C)(C)O3)cc1Cl [Example 108, 4-(3-Chloro-4-dimethylcarbamoyl-phenoxy)-2,2-dimethyl-2,3-dihydro-benzofuran-6-carboxylic acid (1-methyl-1H-pyrazol-3-yl)-amide] |
| 86.9% | 6.55 | 83% | CN(C)C(=O)c1cc(F)c(Oc2cc(C(=O)Nc3ccn(C)n3)cc3c2CC(C)(C)O3)cc1F [Example 109, 4-(4-Dimethylcarbamoyl-2,5-difluoro-phenoxy)-2,2-dimethyl-2,3-dihydro-benzofuran-6-carboxylic acid (1-methyl-1H-pyrazol-3-yl)-amide] |
| 139% | 7.14 | 131% | Cn1ccc(NC(=O)c2cc(Oc3cc(F)c(C(=O)N4CCC4)c(F)c3)c3c(c2)OC(C)(C)C3)n1 [Example 110, 4-[4-(Azetidine-1-carbonyl)-3,5-difluoro-phenoxy]-2,2-dimethyl-2,3-dihydro-benzofuran-6-carboxylic acid (1-methyl-1H-pyrazol-3-yl)-amide] |
| 85.2% | 7.35 | 115% | CN(C)C(=O)c1c(F)cc(Oc2cc(C(=O)Nc3ccn(C)n3)cc3c2CC(C)(C)O3)cc1F [Example 111, 4-(4-Dimethylcarbamoyl-3,5-difluoro-phenoxy)-2,2-dimethyl-2,3-dihydro-benzofuran-6-carboxylic acid (1-methyl-1H-pyrazol-3-yl)-amide] |
| 130% | 7.36 | 153% | CCNC(=O)c1c(F)cc(Oc2cc(C(=O)Nc3ccn(C)n3)cc3c2CC(C)(C)O3)cc1F [Example 112, 4-(4-Ethylcarbamoyl-3,5-difluoro-phenoxy)-2,2-dimethyl-2,3-dihydro-benzofuran-6-carboxylic acid (1-methyl-1H-pyrazol-3-yl)-amide] |
| 239% | 5.59 | 265% | Cn1ccc(NC(=O)c2cc(Oc3cc(F)cc(F)c3)c3c(c2)OC(C)(C)C3)n1 [Example 113, 4-(3,5-Difluoro-phenoxy)-2,2-dimethyl-2,3-dihydro-benzofuran-6-carboxylic acid (1-methyl-1H-pyrazol-3-yl)-amide] |
| 156% | 6.69 | 164% | Cn1ccc(NC(=O)c2cc(Oc3ccc(S(C)(=O)=O)c(F)c3)c3c(c2)OC(C)(C)C3)n1 [Example 114, 4-(3-Fluoro-4-methanesulfonyl-phenoxy)-2,2-dimethyl-2,3-dihydro-benzofuran-6-carboxylic acid (1-methyl-1H-pyrazol-3-yl)-amide] |
| 79.7% | 5.06 | 141% | Cn1ccc(NC(=O)c2cc(Oc3cc(F)ccc3S(C)(=O)=O)c3c(c2)OC(C)(C)C3)n1 [Example 115, 4-(5-Fluoro-2-methanesulfonyl-phenoxy)-2,2-dimethyl-2,3-dihydro-benzofuran-6-carboxylic acid (1-methyl-1H-pyrazol-3-yl)-amide] |
| 110% | 7.14 | 112% | Cc1ccc(NC(=O)c2cc(Oc3ccc(S(C)(=O)=O)c(F)c3)c3c(c2)OC(C)(C)C3)nc1 [Example 116, 4-(3-Fluoro-4-methanesulfonyl-phenoxy)-2,2-dimethyl-2,3-dihydro-benzofuran-6-carboxylic acid (5-methyl-pyridin-2-yl)-amide] |
| 325% | 6.82 | 283% | Cn1ncc(NC(=O)c2cc(Oc3ccc(S(C)(=O)=O)c(F)c3)c3c(c2)OC(C)(C)C3)n1 [Example 117, 4-(3-Fluoro-4-methanesulfonyl-phenoxy)-2,2-dimethyl-2,3-dihydro-benzofuran-6-carboxylic acid (2-methyl-2H-[1,2,3]triazol-4-yl)-amide] |
| 244% | 6.49 | 251% | Cn1ncc(NC(=O)c2cc(Oc3ccc(S(C)(=O)=O)c(Cl)c3)c3c(c2)OC(C)(C)C3)n1 [Example 118, 4-(3-Chloro-4-methanesulfonyl-phenoxy)-2,2-dimethyl-2,3-dihydro-benzofuran-6-carboxylic acid (2-methyl-2H-[1,2,3]triazol-4-yl)-amide] |
| 242% | 6.37 | 223% | Cn1ncc(NC(=O)c2cc(Oc3ccc(S(C)(=O)=O)cc3Cl)c3c(c2)OC(C)(C)C3)n1 [Example 119, 4-(2-Chloro-4-methanesulfonyl-phenoxy)-2,2-dimethyl-2,3-dihydro-benzofuran-6-carboxylic acid (2-methyl-2H-[1,2,3]triazol-4-yl)-amide] |
| 80.5% | 6.70 | 79% | Cc1ccc(NC(=O)c2cc(Oc3ccc(S(C)(=O)=O)cc3F)c3c(c2)OC(C)(C)C3)nc1 [Example 120, 4-(2-Fluoro-4-methanesulfonyl-phenoxy)-2,2-dimethyl-2,3-dihydro-benzofuran-6-carboxylic acid (5-methyl-pyridin-2-yl)-amide] |

| SMILES | activation at 10 µM | pEC50 | Emax |
| --- | --- | --- | --- |
| COC(C)CCOc1cc(C(=O)Nc2ccn(C)n2)cc2c1CC(C)(C)O2 (stereo not drawn) [Example 101, 4-(3-Methoxy-butoxy)-2,2-dimethyl-2,3-dihydro-benzofuran-6-carboxylic acid (1-methyl-1H-pyrazol-3-yl)-amide] | 94.7% | 5.22 | 125% |
